Measurements taken from ChEMBL document CHEMBL6071205, “A New Frontier in Targeted Therapies: Harnessing PROTACs and Advanced Delivery Systems” (ACS Med Chem Lett, 2024).

molecular target: von Hippel-Lindau disease tumor suppressor/GTPase KRas (Homo sapiens, UniProt P01116+P40337, G12D); test: PROTAC activity at VHL/KRAS G12D mutant in human ASPC1 cells assessed as induction of protein degradation incubated for 24 hrs by HiBiT based Nano-Glo luminescence assay; assay type: cell-based
Sequence (P01116 whole entry G12D, stated change not applied): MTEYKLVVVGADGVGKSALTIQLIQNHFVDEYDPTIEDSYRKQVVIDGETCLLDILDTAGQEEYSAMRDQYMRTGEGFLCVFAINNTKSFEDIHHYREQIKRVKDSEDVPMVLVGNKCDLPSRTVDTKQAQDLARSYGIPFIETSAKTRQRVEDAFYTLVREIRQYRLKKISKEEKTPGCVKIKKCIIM
Sequence (P40337 whole entry, stated change not applied): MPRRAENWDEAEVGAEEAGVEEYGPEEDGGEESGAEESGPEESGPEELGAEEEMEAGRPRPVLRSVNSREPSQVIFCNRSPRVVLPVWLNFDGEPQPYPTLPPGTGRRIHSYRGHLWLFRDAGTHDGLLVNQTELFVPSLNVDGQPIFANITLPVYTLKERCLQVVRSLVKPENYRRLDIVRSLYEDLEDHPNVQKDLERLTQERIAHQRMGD

**Q.** `C#Cc1c(F)ccc2cccc(-c3ncc4c(N5CC6CCC(C5)N6)nc(OC[C@@]56CCCN5[C@H](COC(=O)N5CCC7(CCC(CCc8ccc9c(c8)n(C)c(=O)n9C8CCC(=O)NC8=O)CC7)CC5)CC6)nc4c3F)c12` (some centres not stated) was tested. Which DC50 did it give?
**A.** ≥ 100 nM

**Q.** `C#Cc1c(F)ccc2cccc(-c3ncc4c(N5CC6CCC(C5)N6)nc(OC[C@@]56CCCN5[C@H](COC(=O)N5CC(CN7CCN(c8ccc9c(c8)n(C)c(=O)n9C8CCC(=O)NC8=O)CC7)C5)CC6)nc4c3F)c12` (some centres not stated) was tested. Which DC50 did it give?
**A.** ≤ 100 nM

**Q.** For `C#Cc1c(F)ccc2cc(O)cc(-c3ncc4c(N5CC6CCC(C5)N6)nc(OC[C@@]56CCCN5[C@H](COC(=O)N5CCC(OCc7ccc8c(c7)n(C)c(=O)n8C7CCC(=O)NC7=O)CC5)CC6)nc4c3F)c12` (some centres not stated), which DC50 is on record?
**A.** ≥ 100 nM

**Q.** How did the DC50 turn out when `C#Cc1c(F)ccc2cccc(-c3ncc4c(N5CC6CCC(C5)N6)nc(OC[C@@]56CCCN5[C@H](COC(=O)N5CCC(OCCCCCCc7ccc8c(c7)n(C)c(=O)n8C7CCC(=O)NC7=O)CC5)CC6)nc4c3F)c12` (some centres not stated) was run?
**A.** ≤ 100 nM

**Q.** `C#Cc1c(F)ccc2cccc(-c3ncc4c(N5CC6CCC(C5)N6)nc(OC[C@@]56CCCN5[C@H](COC(=O)N5CCC(CC7CCN(Cc8ccc9c(c8)n(C)c(=O)n9C8CCC(=O)NC8=O)CC7)CC5)CC6)nc4c3F)c12` (some centres not stated) was tested. Which DC50 did it give?
**A.** ≤ 100 nM

**Q.** Which DC50 does the source give for `C#Cc1c(F)ccc2cccc(-c3ncc4c(N5CC6CCC(C5)N6)nc(OC[C@@]56CCCN5[C@H](COC(=O)N5CCC(OC7CCN(Cc8ccc9c(c8)n(C)c(=O)n9C8CCC(=O)NC8=O)CC7)CC5)CC6)nc4c3F)c12` (some centres not stated) here?
**A.** ≤ 100 nM

**Q.** Which DC50 does the source give for `C#Cc1c(F)ccc2cc(O)cc(-c3ncc4c(N5CC6CCC(C5)N6)nc(OC[C@@]56CCCN5[C@H](COC(=O)N5CCC(OCCCc7ccc8c(c7)n(C)c(=O)n8C7CCC(=O)NC7=O)CC5)CC6)nc4c3F)c12` (some centres not stated) here?
**A.** ≤ 100 nM

**Q.** How did the DC50 turn out when `C#Cc1c(F)ccc2cccc(-c3ncc4c(N5CC6CCC(C5)N6)nc(OC[C@@]56CCCN5[C@H](COC(=O)N5CCN(C7CCN(Cc8ccc9c(c8)n(C)c(=O)n9C8CCC(=O)NC8=O)CC7)CC5)CC6)nc4c3F)c12` (some centres not stated) was run?
**A.** ≤ 100 nM

**Q.** For `C#Cc1c(F)ccc2cccc(-c3ncc4c(N5CC6CCC(C5)N6)nc(OC[C@@]56CCCN5[C@H](COC(=O)N5CCC(CN7CCC(c8ccc9c(c8)n(C)c(=O)n9C8CCC(=O)NC8=O)CC7)CC5)CC6)nc4c3F)c12` (some centres not stated), which DC50 is on record?
**A.** ≤ 100 nM

**Q.** `C#Cc1c(F)ccc2cccc(-c3ncc4c(N5CC6CCC(C5)N6)nc(OC[C@@]56CCCN5[C@H](COC(=O)N5CCC(OCCC#Cc7ccc8c(c7)n(C)c(=O)n8C7CCC(=O)NC7=O)CC5)CC6)nc4c3F)c12` (some centres not stated) was tested. Which DC50 did it give?
**A.** ≤ 100 nM

**Q.** `C#Cc1c(F)ccc2cccc(-c3ncc4c(N5CC6CCC(C5)N6)nc(OC[C@@]56CCCN5[C@H](COC(=O)N5CCC(OCCCc7ccc8c(c7)n(C)c(=O)n8C7CCC(=O)NC7=O)CC5)CC6)nc4c3F)c12` (some centres not stated) was tested. Which DC50 did it give?
**A.** ≤ 100 nM

**Q.** With `C#Cc1c(F)ccc2cccc(-c3ncc4c(N5CC6CCC(C5)N6)nc(OC[C@@]56CCCN5[C@H](COC(=O)N5CCC(OC7CN(Cc8ccc9c(c8)n(C)c(=O)n9C8CCC(=O)NC8=O)C7)CC5)CC6)nc4c3F)c12` (some centres not stated) as the molecule, how does the DC50 read?
**A.** ≤ 100 nM
